# From PMC6161288, “Bioavailability of Eurycomanone in Its Pure Form and in a Standardised Eurycoma longifolia Water Extract” (Pharmaceutics, 2018)
# Like-named read-outs stand apart in the source and are kept apart here.
# Key:
# [1] = parameters: method as in PMID 27572280; conditions: cited from earlier work
# Plasma stability, rat = type: in vitro ADME; conditions: 5 µM, 37 °C, up to 4 h
# Procedure: (§1) The plasma stability was estimated by preparing 5 µM of eurycomanone in 600 µL plasma in triplicates. The plasma stability of eurycomanone was determined in five types of plasma (mice, rat, dog, monkey, and human). The reaction was kept at 37 °C and ACN (100 µL) was added at timepoints 0, 30 min, and 1, 2, and 4 h to the reaction mixture (100 µL). The supernatant (10,000 rpm, 10 min, 4 °C) was collected and analysed by LC-MS/MS. The standards (propantheline bromide and enalapril) were analysed in triplicates.
# [2] = Pharmacokinetics of eurycomanone (pure compound) in rats (intravenous and oral); type: in vivo; conditions: male, Wistar, rat, plasma; for AUC(0-t): read-out: AUC0–8
# Source text: The ethical approval for the animal experiments conducted in India was granted from the Animal Ethics Committee, Aurigene Discovery Technologies, Bangalore, India. Eight male Wistar rats (12 weeks old; weighing 250–350 g) and eight Caeserean Derived-1 (CD-1) mice (weighing 20–30 g) were obtained from the Animal House, Aurigene Discovery Technologies, Bangalore, India. They were supplied with standard rodent diets and drinking water ad libitum. Each rodent species (i.e., rats and mice) were divided into two groups. One group (n = 3 for each rodent species) was administered with eurycomanone via the intravenous route (IV) and another group (n = 3 for each rodent species) via the oral route (PO) using oral gavage intubation needle. Two animals of each of the species were used as a control and they received reverse osmosis water. All rats underwent jugular vein cannulation surgery 72 h prior to the administration of the eurycomanone.
# Eurycomanone (rats: 1.5 mg/mL for IV route and 3.0 mg/mL for PO route; mice: 0.5 mg/mL for IV route and 1.0 mg/mL for PO route) samples were prepared fresh on the day of dosing. For the IV administration, eurycomanone was dissolved in 3% NMP and 97% of 10% HPCD in saline. For the oral administration, eurycomanone was dissolved in 3% NMP and 97% of 30% HPCD in saline. Both samples were sonicated before use. The SWE (5 mg/mL for IV route, 10 mg/mL for PO route) was prepared fresh on the day of dosing. For the IV administration, the SWE was dissolved in reverse osmosis water and filtered (0.2 µm pore size) before administration. The SWE for the PO administration was prepared using the same method, except without filtering. The animals were not fasted and doses given were based on the body weights prior to dosing.
# Blood specimens (approximately 0.30–0.40 mL via the jugular vein cannula for rats and 0.10–0.20 mL via submanibular bleeding for mice) were collected at time points 0.083 (IV group only), 0.25, 0.5, 1, 2, 4, 6, and 8 h post-dosing with eurycomanone. At the experiment end point, the animals were euthanized by excess isoflurane inhalation followed by cervical dislocation. In the experiment using SWE, the rats were placed in metabolic cages (Techniplast, West Chester, PA, USA) and blood (approximately 0.30–0.40 mL collected via the jugular vein cannula), urine, and faeces specimens were collected at the same time points with the above plus one additional time point of 24 h. Kidney and liver specimens were collected at necropsy, where the rats were euthanized by CO2 inhalation followed by cervical dislocation. All blood specimens were centrifuged (10,000 rpm, 10 min) to obtain plasma and were stored at −80 °C until processed. Urine and faeces specimens were collected into plastic containers on wet ice while the organ specimens were snap-frozen in liquid nitrogen and maintained at −80 °C until processed.
# Plasma specimens (100 µL), collected from the eurycomanone experiment were added with the internal standard solution (10 µL). Plasma proteins were precipitated with ACN (300 µL), vortex-mixed for 5 min, and centrifuged at 4000 rpm for 7 min. The supernatant was collected and evaporated using a nitrogen evaporator for 20 min at 50 °C. Thereafter, they were reconstituted with the mobile phase (500 µL) and transferred into LC-MS vials for analysis.
# Eurycomanone detection in the pure eurycomanone experiments was done via the LC-MS/MS system consisting of an Agilent 1260 Infinity HPLC system and an AB SCIEX API 4000™ Triple-Quadrupole mass spectrometer equipped with TurboIonSpray® probe and atmospheric pressure chemical ionization (APCI) (AB Sciex LLC, Framingham, MA, USA). Electrospray ionization (ESI) was performed in positive ion mode. The analytical column was Agilent Zorbax Eclipse-C18 (4.6 mm I.D. × 150 mm, 3.5 µm). The mobile phase consisted of 0.1% formic acid (solvent A) and 90% ACN with 0.1% formic acid (solvent B). […]
# Plasma stability, mice = type: in vitro ADME; conditions: 5 µM, 37 °C, up to 4 h, compared with human, rat and dog plasma
# Procedure: as §1
# Plasma stability, human = type: in vitro ADME; conditions: 5 µM, 37 °C, up to 4 h
# Procedure: as §1
# [3] = Liver microsome metabolic stability, human; type: in vitro ADME; conditions: human liver microsomes
# Procedure: The liver microsome stability assay of eurycomanone was estimated using phase I and phase II enzymes in five types of microsomes (mice, rat, dog, monkey, and human). Eurycomanone at 1 mM (20 µL), microsomes at 0.3 mg/mL (20 µL), and 10 mg/mL of alamethicin in 1:1 DMSO and methanol (20 µL) were preincubated at 37 °C for 10 min. The cofactor, 5 mM UDPGA (20 µL), and 1 mM NADPH (20 µL) were added to make the final assay volume of 100 µL. At timepoints 0, 15, 30, 45, 60, and 90 min, […] of the reaction mixture is taken out and added to the stop solution. The supernatants (10,000 rpm, 10 min, 4 °C) were collected and analysed using LC-MS/MS. The standards used for mice and rat liver microsomes were propranolol and dasatinib. The standards used with the dog and monkey liver microsomes were propranolol and midazolam, while the standards used with the human liver microsomes were propranolol and terfinadine.
smiles,measurement,setting,value
C=C1[C@@H](O)[C@]2(O)OC[C@]34[C@H]2[C@@]2(C)[C@H](O)C(=O)C=C(C)[C@@H]2C[C@H]3OC(=O)[C@H](O)[C@@]14O [Eurycomanone],Cmax,[1],40.43 ng/mL
same,plasma stability,"Plasma stability, rat",highly stable
same,AUC(0-t),[2]; 3 mg/kg intravenous,970 ng·h/mL
same,AUC(0-t),[2]; 30 mg/kg oral,1150 ng·h/mL
same,Cmax,"[2]; 30 mg/kg oral, read-out: Observed Cmax",238 ng/mL
same,half-life,"[2]; 3 mg/kg intravenous, read-out: Half-life (t1/2) (converted)",0.3 h
same,clearance,"[2]; 3 mg/kg intravenous, read-out: Plasma Clearance (CL) (converted)",45.7 mL/min/kg
same,Vd,"[2]; 3 mg/kg intravenous, read-out: Volume of Distribution at Steady State (Vss)",0.95 L/kg
same,bioavailability,"[2]; 30 mg/kg oral vs 3 mg/kg intravenous, read-out: Bioavailability (F)",11.8%
same,Tmax,"[2]; 30 mg/kg oral, read-out: Observed Tmax",2 h
same,plasma stability,"Plasma stability, mice",slightly lower
same,plasma stability,"Plasma stability, human",highly stable
same,Half-life (t1/2),[3],>1.5 h
same,half-life at 200 µM,[3],> 1.5 h
same,CLint scaled at 200 µM,[3]; read-out: Intrinsic clearance (Clint),52.4 mL/min/kg
